Results on 13 molecules are retold here after ChEMBL document CHEMBL5143578, “Elucidation of structure-activity relationship of humulanolides and identification of humulanolide analog as a novel HSP90 inhibitor” (Bioorg Med Chem Lett, 2022).

The source made the active and inactive calls. The calls are words filed in the database; no cut-off is given here. Where only a bound is given, the exact number is not on record here.

For test [1], the system named is CHL-1. As to the kind of experiment: Antiproliferative activity against human CHL-1 cells incubated for 24 hrs by MTT assay. It is filed as functional, cell-based. The conditions noted are these: CHL-1, 24 h.
Test [2] concerns HT-1080. Briefly: Antiproliferative activity against human HT-1080 cells incubated for 24 hrs by MTT assay. It is filed as functional, cell-based. The following applies: HT-1080, 24 h.
For test [3], the system named is A549. Briefly: Antiproliferative activity against human A549 cells incubated for 24 hrs by MTT assay. Type of test: functional, cell-based. The following applies: A549, 24 h.
Test [4] relates to PC-3. As to the kind of experiment: Antiproliferative activity against human PC-3 cells incubated for 24 hrs by MTT assay. It is filed as functional, cell-based. The following applies: PC-3, 24 h.
Test [5] has as its system Ca9-22. As to the kind of experiment: Antiproliferative activity against human Ca9-22 cells incubated for 24 hrs by MTT assay. The following applies: Ca9-22, 24 h. Type of test: functional, cell-based.
Test [6] has as its system HeLa. Briefly: Antiproliferative activity against human HeLa cells incubated for 24 hrs by MTT assay. It is filed as functional, cell-based.
The subject of test [7] is SK-MEL-28. Briefly: Antiproliferative activity against human SK-MEL-28 cells incubated for 24 hrs by MTT assay. The conditions noted are these: SK-MEL-28, 24 h. It is filed as functional, cell-based.
Test [8] concerns HCT-116. As to the kind of experiment: Antiproliferative activity against human HCT-116 cells incubated for 24 hrs by MTT assay. It is filed as functional, cell-based. The following applies: HCT-116, 24 h.
Test [9] concerns the target T1, Heat shock protein HSP90 (Homo sapiens) (UniProt P07900+P08238). Briefly: Inhibition of HSP90 in human HT-1080 cells assessed as decrease in CDK4 protein level by measuring half-life of CDK4 protein at 20 uM measured upto 24 hrs in the presence of cycloheximide by Western blotting analysis. It is filed as cell-based.
In test [10] the target is T1, Heat shock protein HSP90 (Homo sapiens). As to the kind of experiment: Inhibition of HSP90 in human HT-1080 cells assessed as downregulation of CDK4 protein expression measured after 24 hrs by Western blot analysis. Type of test: cell-based. The conditions noted are these: dose 3-30 µM.
Test [11] deals with HT-1080. As to the kind of experiment: Induction of cell morphological changes in human HT-1080 cells at 20 uM incubated for 24 hrs by phase contrast microscopic analysis. Type of test: functional, cell-based.
Test [12] concerns the target T1, Heat shock protein HSP90 (Homo sapiens). Briefly: Inhibition of HSP90 in human HT-1080 cells assessed as downregulation of Akt protein expression measured after 24 hrs by Western blot analysis. It is filed as cell-based. The conditions noted are these: dose 3-30 µM.
Test [13] has the same target. As to the kind of experiment: Inhibition of HSP90 in human HT-1080 cells assessed as upregulation of HSP70 protein expression measured after 24 hrs by Western blot analysis. The conditions noted are these: dose 3-30 µM. Type of test: cell-based.
Test [14] deals with HT-1080. As to the kind of experiment: Induction of cell morphological changes in human HT-1080 cells at 10 uM incubated for 24 hrs by phase contrast microscopic analysis. It is filed as functional, cell-based.
In test [15] the test system is HT-1080. As to the kind of experiment: Upregulation of HSP70 protein expression in human HT-1080 cells by Western blotting analysis. Type of test: functional, cell-based.

In the case of `C/C1=C/CC[C@@H]2C(=O)O[C@H]3[C@@H]2C(=CC3(C)C)C1=O`, the IC50 in test [1], in test [2], in test [3], in test [4], in [5] and in [6] was over 10 µM in each case. The IC50 in [7] and in [8] was over 10 µM throughout.

For `CC1(C)/C=C/C(=O)[C@@]2(C)O[C@H]2CCC2=C[C@@H]1OC2=O`, the T1/2 in test [9] worked out at 8 h. The IC50 is 3.63 µM in [1]; 6.54 µM in test [2]; 3.02 µM in test [3]; 1.81 µM in [4]; 2.94 µM in [5]; 4.78 µM in [6]. The results for the IC50 in test [7] and in [8] were 3.43 µM and 1.22 µM, respectively. Moreover, the inhibition result in [10], in [12] and in test [13] was “Active” throughout. Further, the outcome in test [11] was Active.

`CC1=CCCC23C(=O)O[C@H]4[C@@H]2[C@@H]([C@H]3C1=O)C4(C)C` (some centres undefined): the IC50 in [1], in test [2], in test [3], in test [4], in test [5] and in test [6] was over 10 µM in each case. Also, the IC50 in [7] and in test [8] was over 10 µM in each case.

As for `C/C1=C/CCC23C(=O)O[C@H]4[C@@H]2[C@@H](C1=O)[C@@H]3C4(C)C`, the IC50 in [1], in test [2], in test [3], in test [4], in test [5] and in test [6] was over 10 µM each time. For the same molecule, the IC50 in test [7] and in test [8] was over 10 µM in each case.

Turning to `CC1(C)[C@H]2[C@H]3[C@@H]1OC(=O)C31CC[C@@H]3O[C@]3(C)C(=O)[C@H]21` (some centres undefined), the IC50 in [1], in [2], in test [3], in [4], in test [5] and in test [6] was over 10 µM throughout. In addition, the IC50 in test [7] and in test [8] was over 10 µM throughout.

`C/C1=C\CCC2=C[C@H](OC2=O)C(C)(C)/C=C/[C@@H]1O`: the IC50 in test [1], in test [2], in [3], in test [4], in test [5] and in [6] was over 10 µM in each case. The IC50 in [7] and in test [8] was over 10 µM each time.

Regarding `CC1(C)/C=C/[C@H](O)[C@@]2(C)O[C@@H]2CCC2=C[C@@H]1OC2=O`, the IC50 in [1], in [2], in test [3], in [4], in test [5] and in [6] was over 10 µM throughout. For the same molecule, the IC50 in test [7] and in test [8] was over 10 µM throughout.

With `COC1=C2C[C@@H](C)C[C@H](OC)[C@H](O)[C@@H](C)/C=C(\C)[C@H](OC(N)=O)[C@@H](OC)/C=C\C=C(/C)C(=O)NC(=CC1=O)C2=O`, in test [14], the outcome was Active.

As to `C/C1=C/CCC2=C[C@H](OC2=O)C(C)(C)/C=C\C1=O`, the IC50 was over 10 µM in [1]; over 10 µM in test [2]; over 10 µM in test [3]; over 10 µM in test [4]; 9.89 µM in [5]; over 10 µM in [6]. For the same molecule, the IC50 in test [7] and in test [8] was over 10 µM in each case.

Turning to `CC1(C)/C=C/C(=O)[C@@]2(C)O[C@@H]2CCC2=C[C@@H]1OC2=O`, the IC50 in test [1], in test [2], in test [3], in [4], in test [5] and in test [6] was over 10 µM each time. The concentration for half-maximal inhibition (IC50) in [7] and in test [8] was over 10 µM in each case.

As for `C/C1=C/CCC2=C[C@H](OC2=O)C(C)(C)/C=C/C1=O`, the IC50 was over 10 µM in test [1]; 8.17 µM in [2]; 6.62 µM in [3]; 2.65 µM in test [4]; 7.52 µM in [5]; 8.19 µM in [6]. The half-inhibitory concentration (IC50) in test [7] is over 10 µM; in test [8], 9.82 µM. For the same molecule, the outcome in [15] was Active.

`C/C1=C\CCC2=C[C@H](OC2=O)C(C)(C)/C=C/C1=O`: the IC50 in test [1] worked out at 4.71 µM; in test [2], 5.31 µM; in [3], 5.51 µM; in [4] it was 3.13 µM; in test [5], 4.79 µM; in test [6] it was 8.64 µM. In addition, the IC50 was 5.26 µM in test [7] and 6.59 µM in test [8]. In addition, in test [15], the outcome was Active.

In the case of `CC1(C)/C=C/[C@H](O)[C@@]2(C)O[C@H]2CCC2=C[C@@H]1OC2=O`, the IC50 in [1], in test [2], in [3], in test [4], in test [5] and in [6] was over 10 µM each time. For the same molecule, the IC50 in test [7] and in [8] was over 10 µM throughout.
